# Test results as given in patent publication US20230085307A1, “PYRIDAZINONE COMPOUND AND HERBICIDE” (NISSAN CHEMICAL CORPORATION, priority 2019, published 2023).
# Key:
# wheat = experiment: Test Example 5: effect on crop by foliage application, plastic box (Table 20, symbol e); format: in vivo; conditions: 320 g/ha, evaluated three weeks after application
# From the text: (§1) [Test Example 5] Herbicidal Effect Test by Foliage Application
# (§2) Sterilized diluvial soil was placed in a plastic box having a length of 21 cm, a width of 13 cm, and a depth of 7 cm. The seeds of each of southern crabgrass, green foxtail, barnyard grass, wild oat, blackgrass, Italian ryegrass, windgrass, velvetleaf, redroot pigweed, lambsquarters, chickweed, false cleavers, persian speedwell, corn, soybean, rice, wheat, beet, and rapeseed were sowed in a spot-like manner and covered with the soil having a thickness of about 1.5 cm. Thereafter, the plants were grown in a greenhouse at 25° C. to 30° C. After 14-day growth of the plants, the emulsion agent of the compound of the present invention prepared according to Formulation Example 2 was diluted with water so as to achieve a predetermined herbicide amount, and the diluted emulsion agent was uniformly applied to a foliage part with a small-sized spray. Three weeks after the herbicide application, the effect of the herbicide on each plant was evaluated according to the criteria of Test Example 1.
# Italian ryegrass [1] = experiment: Test Example 4: herbicidal effect by soil treatment (Table 19, symbol K); format: in vivo, Italian ryegrass (Lolium multiflorum); conditions: amount of applied herbicide 320 g/ha
# Outline: (§3)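 Three weeks of greenhouse growth at 25° C. to 30° C. followed a uniform surface spray of water-diluted emulsion at a predetermined herbicide amount. Seeds had been sown beforehand under about 1.5 cm of sterilized diluvial soil. Grading followed criteria set out in an earlier test.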
# Italian ryegrass [2] = experiment: Test Example 5: herbicidal effect by foliage application, plastic box (Table 20, symbol K); format: in vivo, Italian ryegrass (Lolium multiflorum); conditions: foliage application, 320 g/ha, evaluated three weeks after application
# Outline: (§4)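 Plants sown in sterilized diluvial soil and grown 14 days in a greenhouse at 25° C to 30° C, then sprayed on the foliage with the compound's emulsion diluted in water to a predetermined herbicide amount. Injury to weeds and crops scored three weeks after application on a visual rating scale.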
# wild oat [3] = experiment: Test Example 5: herbicidal effect by foliage application, plastic box (Table 20, symbol I); format: in vivo, wild oat (Avena fatua); conditions: foliage application, 320 g/ha, evaluated three weeks after application
# Outline: as §4
# green foxtail [4] = experiment: Test Example 5: herbicidal effect by foliage application, plastic box (Table 20, symbol G); format: in vivo, green foxtail (Setaria viridis); conditions: foliage application, 320 g/ha, evaluated three weeks after application
# Outline: as §4
# barnyard grass = experiment: Test Example 3: herbicidal effect by foliage application, Wagner pot (Table 18, symbol H); format: in vivo, barnyard grass (Echinochloa crus-galli); conditions: amount of applied herbicide 320 g/ha
# Outline: (§5)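 Plants were sown in alluvial soil held under 0.1–0.5 cm standing water and grown 14 days in a greenhouse at 25–30 °C. An emulsifiable formulation, water-diluted to the set dose, was then sprayed onto the foliage, and effects were scored three weeks later using previously defined criteria.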
# rice flat sedge = experiment: Test Example 3: herbicidal effect by foliage application, Wagner pot (Table 18, symbol E); format: in vivo, rice flat sedge (Cyperus iria); conditions: amount of applied herbicide 320 g/ha
# Outline: as §5
# chickweed = experiment: Test Example 4: herbicidal effect by soil treatment (Table 19, symbol P); format: in vivo, common chickweed (Stellaria media); conditions: amount of applied herbicide 320 g/ha
# Outline: as §3
# redroot pigweed = experiment: Test Example 4: herbicidal effect by soil treatment (Table 19, symbol N); format: in vivo, redroot pigweed (Amaranthus retroflexus); conditions: amount of applied herbicide 320 g/ha
# Outline: as §3
# soybean = experiment: Test Example 4: effect on crop by soil treatment (Table 19, symbol d); format: in vivo; conditions: amount of applied herbicide 320 g/ha
# From the text: [Test Example 4] Herbicidal Effect Test by Soil Treatment
# as §2, with “Subsequently,” for “Thereafter, the plants were grown in a greenhouse at 25° C. to 30° C. After 14-day growth of the plants,”, “the surface of the soil” for “a foliage part”, “spray. The plastic box was placed in a greenhouse at 25° C. to 30° C. for growth of the plants.” for “spray.”
# lambsquarters = experiment: Test Example 5: herbicidal effect by foliage application, plastic box (Table 20, symbol O); format: in vivo, lambsquarters (Chenopodium album); conditions: foliage application, 320 g/ha, evaluated three weeks after application
# Outline: as §4
# persian speedwell = experiment: Test Example 5: herbicidal effect by foliage application, plastic box (Table 20, symbol R); format: in vivo, Persian speedwell (Veronica persica); conditions: foliage application, 320 g/ha, evaluated three weeks after application
# Outline: as §4
# wild oat [5] = experiment: Test Example 4: herbicidal effect by soil treatment (Table 19, symbol I); format: in vivo, wild oat (Avena fatua); conditions: amount of applied herbicide 320 g/ha
# Outline: as §3
# blackgrass = experiment: Test Example 5: herbicidal effect by foliage application, plastic box (Table 20, symbol J); format: in vivo, blackgrass (Alopecurus myosuroides); conditions: foliage application, 320 g/ha, evaluated three weeks after application
# Outline: as §4
# green foxtail [6] = experiment: Test Example 4: herbicidal effect by soil treatment (Table 19, symbol G); format: in vivo, green foxtail (Setaria viridis); conditions: amount of applied herbicide 320 g/ha
# Outline: as §3
# velvetleaf = experiment: Test Example 5: herbicidal effect by foliage application, plastic box (Table 20, symbol M); format: in vivo, velvetleaf (Abutilon theophrasti); conditions: foliage application, 320 g/ha, evaluated three weeks after application
# Outline: as §4
# beet = experiment: Test Example 5: effect on crop by foliage application, plastic box (Table 20, symbol f); format: in vivo; conditions: 320 g/ha, evaluated three weeks after application
# From the text: as §1, §2
# southern crabgrass = experiment: Test Example 5: herbicidal effect by foliage application, plastic box (Table 20, symbol F); format: in vivo, southern crabgrass (Digitaria ciliaris); conditions: foliage application, 320 g/ha, evaluated three weeks after application
# Outline: as §4
smiles,measurement,setting,value
"COc1ccccc1-c1sc2ccc(C3CC3)cc2c1-c1c(O)c(C)nn(C)c1=O [Compound No. 2-160, 4-(5-cyclopropyl-2-(2-methoxyphenyl)benzo[b]thiophen-3-yl)-5-hydroxy-2,6-dimethylpyridazin-3(2H)-one]",effect on crop e: wheat (criteria 0-5),wheat,1 (Herbicidal rate of 5% or more and less than 20%)
same,"K: Italian ryegrass, herbicidal effect rating",Italian ryegrass [1],0 (Herbicidal rate of 5% or less (almost no effect))
same,melting point,,182 to 184 °C
same,herbicidal effect on K: Italian ryegrass (criteria 0-5),Italian ryegrass [2],3 (Herbicidal rate of 40% or more and less than 70%)
same,herbicidal effect on I: wild oat (criteria 0-5),wild oat [3],0 (Herbicidal rate of 5% or less (almost no effect))
same,herbicidal effect on G: green foxtail (criteria 0-5),green foxtail [4],4 (Herbicidal rate of 70% or more and less than 90%)
same,herbicidal effect on H: barnyard grass,barnyard grass,4 (Herbicidal rate of 70% or more and less than 90%)
same,herbicidal effect on E: rice flat sedge,rice flat sedge,3 (Herbicidal rate of 40% or more and less than 70%)
same,"P: chickweed, herbicidal effect rating",chickweed,1 (Herbicidal rate of 5% or more and less than 20%)
same,"N: redroot pigweed, herbicidal effect rating",redroot pigweed,0 (Herbicidal rate of 5% or less (almost no effect))
same,"d: soybean, effect on crop rating",soybean,0 (Herbicidal rate of 5% or less (almost no effect))
same,herbicidal effect on O: lambsquarters (criteria 0-5),lambsquarters,2 (Herbicidal rate of 20% or more and less than 40%)
same,herbicidal effect on R: persian speedwell (criteria 0-5),persian speedwell,5 (Herbicidal rate of 90% or more (almost completely withered))
same,"I: wild oat, herbicidal effect rating",wild oat [5],0 (Herbicidal rate of 5% or less (almost no effect))
same,herbicidal effect on J: blackgrass (criteria 0-5),blackgrass,4 (Herbicidal rate of 70% or more and less than 90%)
same,"G: green foxtail, herbicidal effect rating",green foxtail [6],0 (Herbicidal rate of 5% or less (almost no effect))
same,herbicidal effect on M: velvetleaf (criteria 0-5),velvetleaf,4 (Herbicidal rate of 70% or more and less than 90%)
same,effect on crop f: beet (criteria 0-5),beet,5 (Herbicidal rate of 90% or more (almost completely withered))
same,herbicidal effect on F: southern crabgrass (criteria 0-5),southern crabgrass,0 (Herbicidal rate of 5% or less (almost no effect))
